Series [1] is described as follows: Reduction in C26:0 LPC level in ABCD1 knock out mouse CNS at 8 mg/kg, po qd measured after 6 months of dosing by LC-MS/MS analysis. It is filed as functional. Also noted: scale not given: the % may be the effect or the level left. As to conditions: 4380 h.
Series [2] is described as follows: Toxicity in telemetry-implanted Cynomolgus monkey assessed as higher baseline beta EEG activity at 5 to 20 mg/kg/day,NG administered for 7 days. The class given is organism-based, Macaca fascicularis. As to conditions: in vivo, po, 168 h, dose 5-20 mg/kg/day, time 7 day.
The nature of series [3]: Toxicity in Cynomolgus monkey assessed as minimal focal gliosis at 20 to 50 mg/kg/day, po administered for 14 days. The class given is organism-based, Macaca fascicularis. As to conditions: in vivo, 336 h, dose 20-50 mg/kg/day, time 14 day.
Series [4] deals with Mus musculus. As to the kind of experiment: Reduction of C26:0 LPC level in ABCD1 KO mouse blood at 5 to 20 mg/kg, po qd for 8 months continuous dosing by LC-MS/MS analysis. It is filed as functional, organism-based. The conditions noted are these: dose 5-20 mg/kg.
Series [5] is described as follows: Toxicity in Cynomolgus monkey assessed as acanthosis at 5 to 50 mg/kg/day, po administered for 14 days by microscopic observation analysis. It is filed as organism-based, Macaca fascicularis. As to conditions: in vivo, 336 h, dose 5-50 mg/kg/day, time 14 day.
A short description of series [6]: Reduction in C26:0 LPC level in ABCD1 knock out mouse CNS at 16 mg/kg, po qd measured after 6 months of dosing by LC-MS/MS analysis. It is filed as functional. Also noted: scale not given: the % may be the effect or the level left. The conditions noted are these: 4380 h.
The nature of series [7]: Toxicity in Cynomolgus monkey assessed as dry and red scaly areas on eyelids at 5 to 50 mg/kg/day, po administered for 14 days by macroscopic observation analysis. The class given is organism-based, Macaca fascicularis. As to conditions: in vivo, 336 h, dose 5-50 mg/kg/day, time 14 day.
Series [8] is described as follows: Reduction in C26:0/C16:0 LPC level in ABCD1 knock out mouse CNS at 10 mg/kg, po qd measured after 3 months of dosing by LC-MS/MS analysis. Also noted: scale not given: the % may be the effect or the level left. It is filed as functional. As to conditions: 2190 h.
The nature of series [9]: Increase in C20:0/C16:0 LPC level in ABCD1 knock out mouse CNS at 10 mg/kg, po qd measured after 3 months of dosing by LC-MS/MS analysis. The class given is functional. The conditions noted are these: 2190 h.
A short description of series [10]: Unbound brain-to-plasma concentration ratio in rat at 3 mg/kg, po measured after 120 mins. It is filed as ADME, organism-based. As to conditions: brain and plasma, read-out: K(p,uu,brain).
Series [11] has as its target T1, Serine/threonine-protein kinase TNNI3K (Homo sapiens) (UniProt Q59H18).
T1 sequence (whole entry): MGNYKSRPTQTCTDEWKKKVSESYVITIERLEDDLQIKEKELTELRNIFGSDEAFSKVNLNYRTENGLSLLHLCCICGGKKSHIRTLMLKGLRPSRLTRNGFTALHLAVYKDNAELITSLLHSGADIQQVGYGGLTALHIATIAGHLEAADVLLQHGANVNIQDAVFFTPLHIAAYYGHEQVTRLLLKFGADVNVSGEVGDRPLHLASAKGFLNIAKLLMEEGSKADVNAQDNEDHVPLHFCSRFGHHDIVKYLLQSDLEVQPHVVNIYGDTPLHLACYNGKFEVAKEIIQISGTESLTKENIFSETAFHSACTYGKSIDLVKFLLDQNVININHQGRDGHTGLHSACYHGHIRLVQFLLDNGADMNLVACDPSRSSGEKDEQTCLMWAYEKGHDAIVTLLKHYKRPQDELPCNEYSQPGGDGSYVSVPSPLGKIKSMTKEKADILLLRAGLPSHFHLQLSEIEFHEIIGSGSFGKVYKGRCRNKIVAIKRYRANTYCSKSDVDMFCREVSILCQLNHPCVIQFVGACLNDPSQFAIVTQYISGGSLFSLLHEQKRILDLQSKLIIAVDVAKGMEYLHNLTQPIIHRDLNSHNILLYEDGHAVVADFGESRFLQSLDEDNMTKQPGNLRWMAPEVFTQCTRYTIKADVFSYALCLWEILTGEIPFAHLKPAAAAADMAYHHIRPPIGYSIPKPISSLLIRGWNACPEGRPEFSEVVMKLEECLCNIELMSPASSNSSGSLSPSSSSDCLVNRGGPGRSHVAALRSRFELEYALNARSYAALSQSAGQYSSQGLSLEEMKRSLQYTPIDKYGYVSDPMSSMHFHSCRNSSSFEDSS
As to the kind of experiment: Inhibition of TNNI3K (unknown origin) at 10 uM.

Series [12] is described as follows: Reduction in C26:0/C16:0 acyl-carnitine levels in ABCD1 knock out mouse CNS at 8 mg/kg, po qd measured after 28 days of dosing by LC-MS/MS analysis. It is filed as functional. Also noted: scale not given: the % may be the effect or the level left. The conditions noted are these: time 28 day.
Series [13] can be described thus: Intrinsic clearance in human hepatocytes assessed per million cells. The class given is ADME, cell-based, Hepatocyte. The conditions noted are these: read-out: CLH.
A short description of series [14]: Toxicity in Sprague-Dawley rat assessed as corneal opacities at 5 mg/kg/day, po administered for 8 weeks by macroscopic observation analysis. It is filed as organism-based. The conditions noted are these: in vivo, 1344 h.
Series [15] relates to Mus musculus. As to the kind of experiment: Reversal of loss of thermal pain sensitivity in ABCD1 knock out mouse assessed as increase in latency at 8 to 32 mg/kg, po qd treated for 6 months by Hargreaves test. It is filed as functional, organism-based. As to conditions: dose 8-32 mg/kg.
The test system of series [16] is Mus musculus. As to the kind of experiment: Reduction of C26:0 LPC level in ABCD1 knock out mouse blood at 1 to 16 mg/kg, po qd measured after 6 days of dosing by LC-MS/MS analysis. The class given is functional, organism-based. The conditions noted are these: dose 1-16 mg/kg, time 6.0 day.
The subject of series [17] is HEK-293T. As to the kind of experiment: Reduction in C26:0 LPC level in isogenic wild-type human HEK-293T cells with ELOVL-1 expression in presence of 13C-labeled acetate measured after 48 hrs by mass spectroscopy. It is filed as functional, cell-based.

The source made the active and inactive calls. The calls are words filed in the database; no cut-off is given here.

Usually inhibition stands for how much of the control response was suppressed.

Consider `O=C(Nc1ccn(-c2ccnc(F)c2)n1)C1(c2ccccc2F)CC1`, for which the Activity in series [1] is 49%; in series [2], “Toxic”; in series [3] it was “Toxic”; in series [5], “Toxic”; in series [6], 51%; in series [7], “Toxic”. For the same molecule, the Activity is recorded as 34% in series [8], 38% in series [9], 55% in [12] and “Toxic” in series [14]. For the same molecule, the outcome in series [4], in [15], in series [16] and in series [17] was Active. For the same molecule, the Kp uu at 2 h in series [10] amounted to 1.1. This molecule also showed an inhibition in [11] of over 50%. In addition, the hepatocyte CLint in [13] was under 4 µL/min/1e6 cells.

These data come from ChEMBL document CHEMBL5131397, “Discovery and Optimization of Pyrazole Amides as Inhibitors of ELOVL1” (J Med Chem, 2021).
